Patent US20250302817A1, “METHODS FOR TREATING PTEN-MUTANT TUMORS” (Icahn School of Medicine at Mount Sinai, priority 2016, published 2025)
Like-named read-outs stand apart in the source and are kept apart here.

How the values were obtained:
[1] = target: T1, CYP2C19 (Homo sapiens, UniProt P33261); conditions: in vivo; cited from earlier work
T1 construct: omeprazole (a CYP2C19 substrate); host or cells: human subjects, in vivo

[2] = target: T2, organic anion transporter 3 (OAT3) (Homo sapiens, UniProt Q8TCC7); conditions: repeated doses of teriflunomide; cited from earlier work
T2 construct: host or cells: human subjects, in vivo

[3] = in vivo; cited from earlier work
[4] = target: T3, CYP2B6 (Homo sapiens, UniProt P20813); conditions: in vivo; cited from earlier work
T3 construct: host or cells: human subjects, in vivo

[5] = system: CYP1A2; conditions: repeated doses of teriflunomide; cited from earlier work
[6] = system: BCRP transporter and organic anion transporting polypeptide 1B1 and 1B3 (OATP1B1/1B3); conditions: repeated doses of teriflunomide; cited from earlier work
[7] = cited from earlier work
[8] = multiple sclerosis patients, cited from earlier work; for Alopecia / Arthralgia / Diarrhea / Headache / Nausea / Neutropenia / Parathesia: all grades
[9] = system: PI3K signaling; experiment: Immunoblot of pAKT in Pten KO and WT cells; assay type: cell-based; conditions: 50 μM A771726
Description: Note that here as well as in FIG. 2, H-I, a large amount of DMSO was used in each condition to match the amount of orotate needed, narrowing the growth differential normally observed between leflunomide-treated and untreated cells in the PTEN mutant setting. FIG. 8B is a bar graph and immunoblot depicting cells transfected with siRNA against DHODH. The bar graph depicts cell viability measured using annexin V and 7AAD. 0.5 μg/mL actinomycin D was a positive control for cell death. (Students t-test, *p<0.05, n=3). […] FIG. 8C is an immunoblot of DHODH in Pten KO and WT cells. FIG. 8D is an immunoblot of pAKT in Pten KO and WT cells with or without treatment with 50 μM A771726. FIG. 8E and FIG. 8F are bar graphs depicting the GI50s of cells treated with dose titrations of 5-fluorouracil or mercaptopurine, respectively (Student's t-test, p>0.05, n=3). FIG. 8G depicts the confluence of prostate cells grown in media containing full glutamine (4 mM) or no added glutamine. Data shown as means±SD.
Samples were lysed in 2× Laemelli sample buffer with mercaptoethanol and were boiled before separation by SDS-PAGE on Tris-Glycine gels (Invitrogen EC60352). Wet-transfer to PVDF (Fisher ipvh00010) was followed by blocking for 1 hour in 10% nonfat milk (Fisher M-0841) in TBST. […]

[10] = target: T4, albumin (Homo sapiens, UniProt P02768); conditions: cited from earlier work
T4 construct: host or cells: human subjects (circulating albumin)

[11] = repeated doses of teriflunomide; cited from earlier work
[12] = healthy subjects; cited from earlier work
[13] = target: T5, CYP2C9 (Homo sapiens, UniProt P11712); conditions: in vivo; cited from earlier work
T5 construct: S-warfarin (a CYP2C9 substrate); host or cells: human subjects, in vivo

[14] = cited from earlier work; remark: listed apart in the source
[15] = target: T6, CYP2D6 (Homo sapiens, UniProt P10635); conditions: in vivo; cited from earlier work
T6 construct: metoprolol (a CYP2D6 substrate); host or cells: human subjects, in vivo

[16] = cited from earlier work; for median t½: healthy volunteers and MS patients
[17] = target: T7, CYP3A4 (Homo sapiens, UniProt P08684); conditions: in vivo; cited from earlier work
T7 construct: midazolam (a CYP3A4 substrate); host or cells: human subjects, in vivo

[18] = without accelerated elimination procedure

T4 sequence (P02768 25-609): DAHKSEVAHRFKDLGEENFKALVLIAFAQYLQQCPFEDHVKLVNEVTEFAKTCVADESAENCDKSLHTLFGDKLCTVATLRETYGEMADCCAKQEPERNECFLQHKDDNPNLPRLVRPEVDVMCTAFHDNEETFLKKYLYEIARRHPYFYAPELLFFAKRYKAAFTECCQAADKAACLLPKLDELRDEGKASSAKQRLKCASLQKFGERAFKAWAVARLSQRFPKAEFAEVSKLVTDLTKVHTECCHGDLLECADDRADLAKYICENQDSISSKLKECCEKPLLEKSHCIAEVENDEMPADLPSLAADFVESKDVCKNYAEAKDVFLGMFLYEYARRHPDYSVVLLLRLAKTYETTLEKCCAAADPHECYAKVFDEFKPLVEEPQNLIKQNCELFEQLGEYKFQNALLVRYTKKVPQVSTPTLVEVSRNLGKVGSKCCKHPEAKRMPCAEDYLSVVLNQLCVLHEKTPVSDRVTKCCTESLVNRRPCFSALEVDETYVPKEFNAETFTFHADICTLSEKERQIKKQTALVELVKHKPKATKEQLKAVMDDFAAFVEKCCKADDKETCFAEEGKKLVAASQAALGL
T2 sequence (Q8TCC7 whole entry): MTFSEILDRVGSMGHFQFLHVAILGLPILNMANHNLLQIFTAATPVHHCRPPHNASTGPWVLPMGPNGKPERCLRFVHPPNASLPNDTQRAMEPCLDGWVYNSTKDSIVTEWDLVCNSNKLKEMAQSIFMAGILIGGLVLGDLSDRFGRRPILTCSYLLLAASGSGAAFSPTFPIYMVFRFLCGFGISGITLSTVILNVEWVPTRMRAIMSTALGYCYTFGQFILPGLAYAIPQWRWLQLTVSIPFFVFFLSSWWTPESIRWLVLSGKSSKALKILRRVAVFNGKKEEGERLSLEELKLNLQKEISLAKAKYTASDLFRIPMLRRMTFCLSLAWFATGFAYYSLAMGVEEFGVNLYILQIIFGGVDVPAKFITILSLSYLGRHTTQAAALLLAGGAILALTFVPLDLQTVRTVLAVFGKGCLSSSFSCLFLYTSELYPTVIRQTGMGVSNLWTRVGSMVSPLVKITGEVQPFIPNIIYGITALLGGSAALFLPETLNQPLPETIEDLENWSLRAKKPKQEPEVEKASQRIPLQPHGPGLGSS
T5 sequence (P11712 whole entry): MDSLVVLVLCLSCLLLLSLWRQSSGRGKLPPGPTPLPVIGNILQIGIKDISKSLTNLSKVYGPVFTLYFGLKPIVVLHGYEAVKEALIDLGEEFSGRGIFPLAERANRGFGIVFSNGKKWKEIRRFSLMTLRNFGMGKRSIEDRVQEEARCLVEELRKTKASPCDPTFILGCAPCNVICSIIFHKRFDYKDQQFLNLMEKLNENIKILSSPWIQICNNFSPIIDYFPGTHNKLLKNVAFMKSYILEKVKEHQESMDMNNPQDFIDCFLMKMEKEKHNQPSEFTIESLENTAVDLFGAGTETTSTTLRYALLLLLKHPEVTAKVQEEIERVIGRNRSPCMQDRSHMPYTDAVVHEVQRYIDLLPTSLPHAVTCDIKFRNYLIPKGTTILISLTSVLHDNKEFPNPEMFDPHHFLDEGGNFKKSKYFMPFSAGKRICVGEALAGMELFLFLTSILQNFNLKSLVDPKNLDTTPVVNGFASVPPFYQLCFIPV
T7 sequence (P08684 whole entry): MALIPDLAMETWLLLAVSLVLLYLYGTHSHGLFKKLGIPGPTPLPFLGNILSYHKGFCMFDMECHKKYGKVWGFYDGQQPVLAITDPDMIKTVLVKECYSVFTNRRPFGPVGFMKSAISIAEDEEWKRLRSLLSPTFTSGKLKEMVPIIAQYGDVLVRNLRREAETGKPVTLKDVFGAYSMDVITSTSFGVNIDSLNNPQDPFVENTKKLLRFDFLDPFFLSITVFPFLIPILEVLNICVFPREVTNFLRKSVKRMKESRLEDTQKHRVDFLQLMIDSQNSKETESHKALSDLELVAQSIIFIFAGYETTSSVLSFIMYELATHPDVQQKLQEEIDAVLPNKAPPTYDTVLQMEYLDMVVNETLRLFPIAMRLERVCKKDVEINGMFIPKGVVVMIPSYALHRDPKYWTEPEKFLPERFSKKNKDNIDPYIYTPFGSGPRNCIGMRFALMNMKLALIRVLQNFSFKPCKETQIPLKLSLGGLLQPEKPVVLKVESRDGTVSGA
T3 sequence (P20813 whole entry): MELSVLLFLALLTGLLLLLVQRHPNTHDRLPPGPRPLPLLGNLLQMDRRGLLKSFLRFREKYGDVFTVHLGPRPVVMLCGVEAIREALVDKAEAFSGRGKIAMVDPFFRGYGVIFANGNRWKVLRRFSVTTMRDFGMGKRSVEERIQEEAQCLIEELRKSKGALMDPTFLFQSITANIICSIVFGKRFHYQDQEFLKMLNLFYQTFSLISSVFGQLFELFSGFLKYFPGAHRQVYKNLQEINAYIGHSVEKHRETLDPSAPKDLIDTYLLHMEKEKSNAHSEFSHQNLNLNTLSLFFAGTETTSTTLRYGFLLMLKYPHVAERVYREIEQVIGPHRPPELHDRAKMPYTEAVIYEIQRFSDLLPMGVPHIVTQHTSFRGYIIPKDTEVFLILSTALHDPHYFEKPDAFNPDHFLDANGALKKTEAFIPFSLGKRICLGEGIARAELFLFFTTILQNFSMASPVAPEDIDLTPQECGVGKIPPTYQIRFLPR
T1 sequence (P33261 whole entry): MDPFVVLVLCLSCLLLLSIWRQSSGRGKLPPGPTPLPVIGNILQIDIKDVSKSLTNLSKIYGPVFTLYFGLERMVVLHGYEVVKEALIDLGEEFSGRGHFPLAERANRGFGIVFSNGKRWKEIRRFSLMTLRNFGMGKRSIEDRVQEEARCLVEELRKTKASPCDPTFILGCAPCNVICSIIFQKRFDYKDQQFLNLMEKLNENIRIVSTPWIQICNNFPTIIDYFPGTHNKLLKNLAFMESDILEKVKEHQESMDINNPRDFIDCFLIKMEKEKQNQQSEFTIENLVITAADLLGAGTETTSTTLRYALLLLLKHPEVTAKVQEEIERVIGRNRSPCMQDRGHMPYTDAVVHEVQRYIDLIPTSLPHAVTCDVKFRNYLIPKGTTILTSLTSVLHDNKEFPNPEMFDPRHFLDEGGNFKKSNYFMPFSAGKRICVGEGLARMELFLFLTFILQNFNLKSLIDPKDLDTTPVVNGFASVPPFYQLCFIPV
T6 sequence (P10635 whole entry): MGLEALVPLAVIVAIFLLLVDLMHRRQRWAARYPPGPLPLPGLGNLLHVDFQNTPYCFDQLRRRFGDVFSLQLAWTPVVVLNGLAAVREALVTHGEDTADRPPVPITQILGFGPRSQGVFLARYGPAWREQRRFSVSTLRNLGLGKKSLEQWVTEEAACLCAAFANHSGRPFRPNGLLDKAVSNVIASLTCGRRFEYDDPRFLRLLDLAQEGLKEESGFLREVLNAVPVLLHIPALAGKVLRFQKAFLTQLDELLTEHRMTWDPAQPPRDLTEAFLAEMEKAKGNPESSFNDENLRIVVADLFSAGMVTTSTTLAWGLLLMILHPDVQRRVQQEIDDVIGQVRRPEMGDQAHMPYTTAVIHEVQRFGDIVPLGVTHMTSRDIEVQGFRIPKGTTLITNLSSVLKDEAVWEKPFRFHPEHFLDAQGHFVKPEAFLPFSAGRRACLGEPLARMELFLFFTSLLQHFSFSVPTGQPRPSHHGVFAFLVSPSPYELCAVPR

Compound: C/C(O)=C(\C#N)C(=O)Nc1ccc(C(F)(F)F)cc1 [teriflunomide, (Z)-2-Cyano-3-hydroxy-but-2-enoic acid-(4trifluoromethylphenyl)-amide]
- effect on pharmacokinetics of omeprazole (a CYP2C19 substrate) [1]: does not affect the pharmacokinetics
- increase in mean cefaclor AUC [2]: 1.54 fold
- increase in mean cefaclor Cmax [2]: 1.43 fold
- effect of rifampin on the pharmacokinetics of teriflunomide [3]: does not affect the pharmacokinetics
- effect on pharmacokinetics of bupropion (a CYP2B6 substrate) [4]: does not affect the pharmacokinetics
- decrease in mean AUC of caffeine [5]: 55%
- decrease in mean Cmax of caffeine [5]: 18%
- increase in mean rosuvastatin AUC [6]: 2.51 fold
- increase in mean rosuvastatin Cmax [6]: 2.65 fold
- additional dose eliminated (mostly in feces) ([7]; after accelerated elimination procedure with cholestyramine): 23.1%
- decrease in teriflunomide plasma concentration ([7]; end of 11 days of cholestyramine or activated charcoal): more than 98%
- Alopecia ([8]; 7 mg/day (n = 1045)): 10%
- Arthralgia ([8]; 7 mg/day (n = 1045)): 8%
- Diarrhea ([8]; 7 mg/day (n = 1045)): 13%
- Headache ([8]; 7 mg/day (n = 1045)): 18%
- Nausea ([8]; 7 mg/day (n = 1045)): 8%
- Neutropenia ([8]; 7 mg/day (n = 1045)): 4%
- Parathesia ([8]; 7 mg/day (n = 1045)): 8%
- Elevated ALT, >3 × upper limit of normal ([8]; 7 mg/day (n = 1045)): 6%
- Elevated ALT, serious adverse events leading to treatment withdrawal ([8]; 7 mg/day (n = 1045)): 3%
- Hypertension (new onset) ([8]; 7 mg/day (n = 1045)): 3%
- Peripheral Neuropathy, serious adverse events leading to treatment withdrawal ([8]; 7 mg/day (n = 1045)): 0.3%
- Serious Infection ([8]; 7 mg/day (n = 1045)): 2%
- Alopecia ([8]; 14 mg/day (n = 1002)): 13%
- Arthralgia ([8]; 14 mg/day (n = 1002)): 6%
- Diarrhea ([8]; 14 mg/day (n = 1002)): 14%
- Headache ([8]; 14 mg/day (n = 1002)): 16%
- Nausea ([8]; 14 mg/day (n = 1002)): 11%
- Neutropenia ([8]; 14 mg/day (n = 1002)): 6%
- Parathesia ([8]; 14 mg/day (n = 1002)): 9%
- Elevated ALT, >3 × upper limit of normal ([8]; 14 mg/day (n = 1002)): 6%
- Elevated ALT, serious adverse events leading to treatment withdrawal ([8]; 14 mg/day (n = 1002)): 3%
- Hypertension (new onset) ([8]; 14 mg/day (n = 1002)): 4%
- Peripheral Neuropathy, serious adverse events leading to treatment withdrawal ([8]; 14 mg/day (n = 1002)): 0.5%
- Serious Infection ([8]; 14 mg/day (n = 1002)): 3%
- effect on PI3K signaling (pAKT immunoblot) [9]: did not affect PI3K signaling
- bound to albumin ([10]; healthy subjects): > 99.3%
- free fraction of teriflunomide ([10]; patients with chronic renal failure): approximately doubled
- free fraction of teriflunomide ([10]; patients with rheumatoid arthritis): slightly higher
- protein binding linearity ([10]; therapeutic concentrations): linear
- increase in mean ethinylestradiol AUC 0-24 [11]: 1.54 fold
- increase in mean ethinylestradiol Cmax [11]: 1.58 fold
- increase in mean levonorgestrel AUC 0-24 [11]: 1.41 fold
- increase in mean levonorgestrel Cmax [11]: 1.33 fold
- QT interval prolongation [12]: no evidence that teriflunomide caused QT interval prolongation of clinical significance
- upper bound of the 90% confidence interval for the largest placebo-adjusted, baseline-corrected QTc [12]: below 10 ms
- effect on pharmacokinetics of S-warfarin (a CYP2C9 substrate) [13]: does not affect the pharmacokinetics
- free fraction of teriflunomide ([14]; patients with chronic renal insufficiency on CAPD or hemodialysis): almost doubled
- impact of CAPD or hemodialysis on circulating levels of teriflunomide ([14]; single dose, patients (n=6) with chronic renal insufficiency): neither had a significant impact
- effect on pharmacokinetics of metoprolol (a CYP2D6 substrate) [15]: does not affect the pharmacokinetics
- effect of food on teriflunomide pharmacokinetics ([16]; human, in vivo): does not have a clinically relevant effect
- time to reach steady-state concentrations ([16]; human, in vivo): approximately 3 months
- volume of distribution (Vss) ([16]; human, in vivo): 0.13 L/kg
- administered dose excreted via feces ([16]; over 21 days): 37.5%
- administered dose excreted via feces and urine ([16]; over 21 days): 60.1%
- administered dose excreted via urine ([16]; over 21 days): 22.6%
- clearance rate less in females than in males ([16]; population analysis): 23%
- increase in clearance, smokers over non-smokers ([16]; population-based pharmacokinetic analysis of phase III data): 38%
- median t½ ([16]; repeated doses of 7 mg): approximately 18 days
- median t½ ([16]; repeated doses of 14 mg): ~19 days
- estimated AUC accumulation ratio ([16]; repeated doses of 7 or 14 mg): approximately 30
- total body clearance ([16]; single IV administration): 30.5 mL/h
- time to reach plasma concentrations less than 0.02 mg/L, longest (individual variations in drug clearance) [16, 18]: ≤ 2 years
- time to reach plasma concentrations less than 0.02 mg/L, on average [16, 18]: 8 months
- effect on pharmacokinetics of midazolam (a CYP3A4 substrate) [17]: does not affect the pharmacokinetics
